# Measurements: patent US5952189A (priority 1997, dated 1999)
# Entries after “also recorded” stand apart in the source; their conditions may differ. Like-named read-outs stand apart in the source and are kept apart here.
# Columns and labels:
# 3T3 = assay: Inhibition of UV-induced DNA fragmentation in 3T3 cells; type: cell-based, murine; conditions: UV 0.5 J/cm^2, 8 h, no inhibitor 38 ± 1.9
# Protocol: (§1) To determine if these findings were unique to U937 or if other cell lines also require protease activity to undergo apoptosis, the effects of several inhibitors on apoptosis induced by UV light in the human mammary carcinoma, BT-20, the murine fibroblast cell line, 3T3, and the human myeloid leukemia, HL-60 were tested. For the BT-20 and 3T3 cells, target cells were pretreated for one hour (with or without inhibitors as indicated in the table) and exposed to UV light at 0.5 J/cm^2 and then incubated for eight hours prior to assessing DNA fragmentation. HL-60 cells were pretreated for one hour (with or without inhibitors as indicated in the table) and exposed to UV at 0.2 J/cm^2 and then incubated for two hours prior to assessing DNA fragmentation.
# (§2) DNA fragmentation assays were carried out according to the protocol of Wright S. C., et al. (1,992) J. Cell. Biochem. 48, 344-355. Target cells were labeled with ^3 H-thymidine and plated in triplicate in flat bottom microtiter plates. Cells were incubated for the indicated length of time for each experiment in the presence of TNF or various inhibitors. In some experiments, cells were treated with UV light at 245 nm using a UV Crosslinker (Fisher Scientific). Assays were harvested and counted on a Packard matrix 96 beta counter. Percent DNA fragmentation was calculated as for the nuclear assay described in Example 3. In assays to test the effects of various inhibitors, the pH of extra wells containing assay buffer, target cells, and each inhibitor was always checked at the beginning and end of each assay to assure that the pH remained at 7.5.
# U937 cells [1] = assay: cells; type: cell-based, human; conditions: for Effect on DNA fragmentation induced by TNF or UV light: result in words
# BT-20 = type: cell-based, human; conditions: for % DNA fragmentation: BT-20, UV 0.5 J/cm^2, 8 h, no inhibitor 44 ± 3.6
# U937 cells [2] = assay: Visualization of DNA fragmentation in U937 cells by agarose gel electrophoresis; type: cell-based, human
# Protocol: In FIG. 2, U937 cells were pretreated with and without TPCK 10 μM for 30 min, exposed to UV light 0.15 J/cm^2, incubated another 2.5 h, then the DNA extracted and analyzed by agarose gel electrophoresis. Lane 1 of FIG. 2 contains molecular weight markers, lane 2 contains untreated U937, lane 3 contains U937 treated with TPCK, lane 4 contains U937 treated with UV light, lane 5 contains U937 treated with TPCK and UV light.
# DNA fragmentation was carried out according to the procedure of Example 2. After the desired treatments, the cells were lysed and debris was removed by centrifugation at 13,000×g for 10 sec. DNA in the supernatant was ethanol precipitated after phenol extraction. Equivalent amounts of material from a fixed number of cells were loaded and electrophoresed on a 1.0% agarose slab gel. DNA was visualized by ethidium bromide staining.
# HL-60 = assay: Inhibition of UV-induced DNA fragmentation in HL-60 cells; type: cell-based, human; conditions: UV 0.2 J/cm^2, 2 h, no inhibitor 49 ± 2.0
# Protocol: as §1
# as §2, with “In assays to test the effects of various inhibitors, the pH of extra wells containing assay buffer, target cells, and each inhibitor was always checked at the beginning and end of each assay to assure that the pH remained at 7.5.” left out
# HL-60 cells = conditions: Bruno et al. 1992; cited from earlier work
# isolated U937 nuclei = assay: DNA fragmentation assay using isolated U937 nuclei; type: cell-based, human; conditions: inhibitor 50 μM (FIG. 6B)
# Protocol: U937 cells were labeled with ^3 H-thymidine by culturing overnight with isotope at 0.5 μCi/ml. The cells were pelleted, washed once, and the cytoplasmic membrane lysed by resuspending the cells in assay buffer (50 mM Tris, 250 mM sucrose 10 mM MgSO4, pH 7.5) plus 0.02% NP-40. Nuclei were then pelleted and resuspended in assay buffer at 1×10^6 /ml. The assay was set up in triplicate in flat bottom microtiter plates under sterile conditions. Nuclei (0.05 ml) were mixed with 0.05 ml of sample diluted in 50 mM Tris pH 7.5 or buffer alone to determine total counts. Plates were incubated for 5 h at 37° C. and then harvested by the addition of 0.1 ml of harvesting buffer (10 mM Tris, 10 mM EDTA, 0.3% Triton X-100, pH 7.5). Plates were harvested by filtration onto glass fiber paper and counted on a Packard Matrix 96 beta counter. Percent DNA fragmentation was calculated as follows: […]
# [3] = tested on: chymotrypsin-like enzymes; conditions: cited from earlier work
# [4] = Poe et al. 1991; cited from earlier work
# apoptotic protease [5] = conditions: unspecified protease; cited from earlier work
# [6] = tested on: TNF-induced hepatocyte apoptosis; assay: TNF-induced hepatotoxicity in mice (serum transaminases); type: in vivo, Balb/c mice
# Protocol: In this example the concept that a protease inhibitor such as DK120 may attenuate inappropriate apoptosis that causes tissue damage in systemic inflammatory response syndrome (SIRS) was tested. TNF-induced hepatocyte apoptosis in mice was performed as described by Leist et al. ((1995) J. Immunol. 154:1778-1786). Briefly, Balb/c mice were injected ip with […] murine TNF combined with […] Actinomycin D/mouse. Twelve h later, mice were anesthetized and bled from the heart to measure serum transaminase levels, which are standard clinically used indicators of liver damage. Mice that were treated with protease inhibitors were injected ip with these compounds 30 min. prior to TNF. Alanine aminotransferase (ALT) and aspartate aminotransferase (AST) were assayed using a commercially available kit (Sigma). […] However, treatment with DK120 caused a doss-dependent decrease in serum transaminase levels. […] However, a drug that nonspecifically blocks all apoptotic pathways that normally function to maintain homeostasis may not be clinically desirable. Subsequent studies were performed to determine if DK120 could also suppress hepatocyte apoptosis in response to a different stimulus.
# ^1 Mice (2 for each treatment) were injected ip +/- DK120 30 min prio
# to TNF and Actinomycin D. Twelve h later serum transaminase levels were
# (§3) To further explore the specificity of DK120 attenuation of TNF-induced hepatotoxicity, several compounds were tested that were found previously not to inhibit apoptotic protease proteolytic activity as measured against a synthetic substrate (data not shown). […] Therefore, the protection mediated by DK120 is not a property of any boron-containing molecule.
# ^1 Mice (3 for each treatment) were injected ip +/- the inhibitors 30
# min prior to TNF and Actinomycin D. Twelve h later serum transaminase
# apoptotic protease [7] = assay: Inhibition of apoptotic protease proteolytic activity against a synthetic substrate; type: biochemical, human; conditions: data not shown
# Protocol: Proteolytic activity was assayed using synthetic substrates selective for different known proteases. All assays were set up by adding 0.02 ml of sample (or known enzyme as a positive control) plus 0.18 ml of appropriate substrate dissolved in PBS PH 7.5 in triplicate in flat bottom microtiter plates, incubated for the indicated length of time at room temperature, and the OD at 405 nm measured using a plate reader.
# Elastase-like activity was measured using N-methoxysuccinyl-ala-ala-pro-valp-nitroanilide (SEQ ID NO: 3) (MAAPV) at 0.25 mM as a substrate. For convenience and maximum sensitivity, these assays were routinely incubated 20 h to monitor protease purification. Under these conditions, the elastase dose response was linear up to a concentration of 6.0 μg/ml (OD of 1.0), see FIG. 3C. […] In order to quantitate the activity of the purified protease, identical assays were set up but kinetic readings of OD were taken every hour from 1-6 h. One unit of enzyme was calculated as the amount of enzyme that hydrolyzes 1.0 nmol substrate/h.
# as §3
molecule,measurement,setting,value
"Cc1ccc(S(=O)(=O)N[C@@H](Cc2ccccc2)C(=O)CCl)cc1 [TPCK, N-1-tosylamide-2-phenylethylchloromethyl ketone]",% DNA fragmentation,3T3; inhibitor 1 μM,32 ± 1.1%
same,% DNA fragmentation,3T3; inhibitor 5 μM,18 ± 0.8%
same,IC50,"U937 cells [1]; Homo sapiens, U-937, read-out: IC50 (Active Concentration), TNF and UV-light induced apoptosis",2000 nM
same,Concentration of maximum suppression of DNA fragmentation,"U937 cells [1]; U937, TNF 1.0 ng/ml plus cycloheximide or UV 0.1 J/cm^2, 1 h pretreatment (FIG. 1)",2.0 µM
same,Effect on DNA fragmentation induced by TNF or UV light,U937 cells [1]; U937 cells,suppressed DNA fragmentation; also recorded: dose-dependently inhibit DNA fragmentation
same,% DNA fragmentation,BT-20; inhibitor 1 μM,19 ± 5.5%
same,% DNA fragmentation,BT-20; inhibitor 5 μM,0 ± 0%
same,Effect on UV-induced DNA fragmentation,"BT-20; summary of Table 2 (BT-20, 3T3, HL-60)",effectively blocked DNA fragmentation
same,"Effect on UV light-induced DNA fragmentation, agarose gel","U937 cells [2]; TPCK 10 μM 30 min, UV 0.15 J/cm^2, 2.5 h",completely abolished UV light-induced DNA fragmentation
same,"DNA fragments on agarose gel, compound alone","U937 cells [2]; TPCK alone, no UV",no DNA fragments
same,% DNA fragmentation,HL-60; inhibitor 1 μM,19 ± 2.0%
same,% DNA fragmentation,HL-60; inhibitor 5 μM,1 ± 2.3%
same,Effect on chemotherapeutic drug-induced apoptosis,HL-60 cells,inhibits chemotherapeutic drug-induced apoptosis
same,Inhibition of nuclear DNA fragmenting activity of protease from UV-treated cells,isolated U937 nuclei,inhibited
same,Inhibition of chymotrypsin / chymotrypsin-like enzymes,[3],potent inhibitor of chymotrypsin-like enzymes
human granzyme B: serine protease of cytotoxic lymphocyte granules,Activity on methoxysuccinyl-ala-ala-pro-val-thiobenzyl ester,[4],inactive
isopropylboronic acid [IBA],"Inactive Compounds, Highest Concentration Tested (highest nontoxic concentration, inactive)","U937 cells [1]; U937 cells, TNF and UV light, compound inactive at this concentration",20 µM
same,Effect on DNA fragmentation induced by TNF or UV light,U937 cells [1]; U937 cells,does not inhibit DNA fragmentation
same,Protease inhibitory activity,apoptotic protease [5],non-inhibitory; also recorded: devoid of protease inhibitory activity
same,Protection from TNF-induced hepatotoxicity,"[6]; Table 10, 10 mg/kg",does not protect from TNF-induced hepatotoxicity
same,ALT,"[6]; mouse, in vivo",393 +/- 52 U/ml
same,Inhibition of apoptotic protease proteolytic activity,apoptotic protease [7],no protease inhibitory activity
